Active and inactive are the calls of the source. The rule behind the calls is not given here.
System: CCRIS mutagenicity, Ames/micronucleus/aberration tests
Experiment: CCRIS mutagenicity studies
[1] = Test System: AMES SALMONELLA TYPHIMURIUM, Strain/Indicator: TA1535, Metabolic Activation: NONE, Method: STANDARD PLATE
[2] = Test System: AMES SALMONELLA TYPHIMURIUM, Strain/Indicator: TA98, Metabolic Activation: NONE, Method: STANDARD PLATE
[3] = Test System: AMES SALMONELLA TYPHIMURIUM, Strain/Indicator: TA100, Metabolic Activation: NONE, Method: STANDARD PLATE
[4] = Test System: AMES SALMONELLA TYPHIMURIUM, Strain/Indicator: TA97, Metabolic Activation: NONE, Method: PREINCUBATION
[5] = Test System: AMES SALMONELLA TYPHIMURIUM, Strain/Indicator: TA98, Metabolic Activation: NONE, Method: PREINCUBATION
[6] = Test System: AMES SALMONELLA TYPHIMURIUM, Strain/Indicator: TA100, Metabolic Activation: NONE, Method: PREINCUBATION
[7] = Test System: AMES SALMONELLA TYPHIMURIUM, Strain/Indicator: TA104, Metabolic Activation: NONE, Method: PREINCUBATION

Which results are given for `O=S1(=O)CCCO1`?
mutagenic call (Test System: AMES SALMONELLA TYPHIMURIUM, Strain/Indicator: TA100, Metabolic Activation: RAT, LIVER, S-9, KC500 OR PHENOBARBITAL, Method: LIQUID SUSPENSION): active; positive; mutagenic call [1]: active; positive; mutagenic call (Test System: UDS HUMAN FIBROBLASTS, Strain/Indicator: THY INCORP (NON-S-PHASE), Metabolic Activation: NONE, Method: LIQUID SCINTILLATION COUNTING): active; positive

What does the source list for `O=[N+]([O-])c1ccc2ccc3c([N+](=O)[O-])cccc3c2c1`?
mutagenic call (Test System: AMES SALMONELLA TYPHIMURIUM, Strain/Indicator: TA98(1,8-DNP6), Metabolic Activation: NONE, Method: STANDARD PLATE): active; positive; mutagenic call (Test System: AMES SALMONELLA TYPHIMURIUM, Strain/Indicator: TA98(NR), Metabolic Activation: NONE, Method: STANDARD PLATE): active; positive; mutagenic call [2]: active; positive; mutagenic call [3]: active; positive; mutagenic call (Test System: AMES SALMONELLA TYPHIMURIUM, Strain/Indicator: YG1021, Metabolic Activation: NONE, Method: STANDARD PLATE): active; positive; mutagenic call (Test System: AMES SALMONELLA TYPHIMURIUM, Strain/Indicator: YG1024, Metabolic Activation: NONE, Method: STANDARD PLATE): active; positive; mutagenic call (Test System: AMES SALMONELLA TYPHIMURIUM, Strain/Indicator: YG1026, Metabolic Activation: NONE, Method: STANDARD PLATE): active; positive; mutagenic call (Test System: AMES SALMONELLA TYPHIMURIUM, Strain/Indicator: YG1029, Metabolic Activation: NONE, Method: STANDARD PLATE): active; positive

What does the source list for `CC(C)OC(=O)C(C)(C)Oc1ccc(C(=O)c2ccc(Cl)cc2)cc1`?
mutagenic call [2]: inactive; negative; mutagenic call (Test System: AMES SALMONELLA TYPHIMURIUM, Strain/Indicator: TA98, Metabolic Activation: RAT, LIVER, S-9, PHENOBARBITAL AND 5,6-BENZOFLAVONE, Method: STANDARD PLATE): inactive; negative; mutagenic call [3]: inactive; negative; mutagenic call (Test System: AMES SALMONELLA TYPHIMURIUM, Strain/Indicator: TA100, Metabolic Activation: RAT, LIVER, S-9, PHENOBARBITAL AND 5,6-BENZOFLAVONE, Method: STANDARD PLATE): inactive; negative; mutagenic call [1]: inactive; negative; mutagenic call (Test System: AMES SALMONELLA TYPHIMURIUM, Strain/Indicator: TA1535, Metabolic Activation: RAT, LIVER, S-9, PHENOBARBITAL AND 5,6-BENZOFLAVONE, Method: STANDARD PLATE): inactive; negative; mutagenic call (Test System: AMES SALMONELLA TYPHIMURIUM, Strain/Indicator: TA1537, Metabolic Activation: NONE, Method: STANDARD PLATE): inactive; negative; mutagenic call (Test System: AMES SALMONELLA TYPHIMURIUM, Strain/Indicator: TA1537, Metabolic Activation: RAT, LIVER, S-9, PHENOBARBITAL AND 5,6-BENZOFLAVONE, Method: STANDARD PLATE): inactive; negative; mutagenic call (Test System: E. COLI, Strain/Indicator: WP2 UVRA, Metabolic Activation: NONE, Method: STANDARD PLATE): inactive; negative; mutagenic call (Test System: E. COLI, Strain/Indicator: WP2 UVRA, Metabolic Activation: RAT, LIVER, S-9, PHENOBARBITAL AND 5,6-BENZOFLAVONE, Method: STANDARD PLATE): inactive; negative

Which mutagenic call [4] does the source give for `O[C@H]1[C@H]2O[C@H]2c2c(c3ccccc3c3ccccc23)[C@@H]1O` here?
Its mutagenic call is “active; positive”.

What about the mutagenic call [5] of the same compound?
The mutagenic call was “active; positive”.

What about the mutagenic call [6] of the same compound?
Its mutagenic call is “active; positive”.

What about the mutagenic call [7] of the same compound?
Its mutagenic call is “active; positive”.

And the mutagenic call (Test System: CHINESE HAMSTER V-79, Strain/Indicator: V-79/6-THIOGUANINE, Metabolic Activation: NONE)?
The mutagenic call was “active; positive”.

How did the mutagenic call (Test System: AMES SALMONELLA TYPHIMURIUM, Strain/Indicator: TA97, Metabolic Activation: HAMSTER, LIVER, S-9, AROCLOR 1254 (10%), Method: PREINCUBATION) turn out when `O=C(O)c1cccc(Cl)c1` was run?
The mutagenic call was “inactive; negative”.

What about the mutagenic call (Test System: AMES SALMONELLA TYPHIMURIUM, Strain/Indicator: TA97, Metabolic Activation: HAMSTER, LIVER, S-9, AROCLOR 1254 (30%), Method: PREINCUBATION) of the same compound?
The mutagenic call was “inactive; negative”.

What about the mutagenic call [4] of the same compound?
The mutagenic call was “inactive; negative”.

What about the mutagenic call (Test System: AMES SALMONELLA TYPHIMURIUM, Strain/Indicator: TA97, Metabolic Activation: RAT, LIVER, S-9, AROCLOR 1254 (10%), Method: PREINCUBATION) of the same compound?
Its mutagenic call is “inactive; negative”.

What about the mutagenic call (Test System: AMES SALMONELLA TYPHIMURIUM, Strain/Indicator: TA97, Metabolic Activation: RAT, LIVER, S-9, AROCLOR 1254 (30%), Method: PREINCUBATION) of the same compound?
Its mutagenic call is “inactive; negative”.

And the mutagenic call (Test System: AMES SALMONELLA TYPHIMURIUM, Strain/Indicator: TA98, Metabolic Activation: HAMSTER, LIVER, S-9, AROCLOR 1254 (10%), Method: PREINCUBATION)?
The mutagenic call was “inactive; negative”.

And the mutagenic call (Test System: AMES SALMONELLA TYPHIMURIUM, Strain/Indicator: TA98, Metabolic Activation: HAMSTER, LIVER, S-9, AROCLOR 1254 (30%), Method: PREINCUBATION)?
The mutagenic call was “inactive; negative”.

What about the mutagenic call [5] of the same compound?
Its mutagenic call is “inactive; negative”.

And the mutagenic call (Test System: AMES SALMONELLA TYPHIMURIUM, Strain/Indicator: TA98, Metabolic Activation: RAT LIVER S-9, PCB, Method: PREINCUBATION)?
Its mutagenic call is “inactive; negative”.

And the mutagenic call (Test System: AMES SALMONELLA TYPHIMURIUM, Strain/Indicator: TA98, Metabolic Activation: RAT, LIVER, S-9, AROCLOR 1254 (10%), Method: PREINCUBATION)?
The mutagenic call was “inactive; negative”.

What about the mutagenic call (Test System: AMES SALMONELLA TYPHIMURIUM, Strain/Indicator: TA98, Metabolic Activation: RAT, LIVER, S-9, AROCLOR 1254 (30%), Method: PREINCUBATION) of the same compound?
The mutagenic call was “inactive; negative”.

What about the mutagenic call (Test System: AMES SALMONELLA TYPHIMURIUM, Strain/Indicator: TA100, Metabolic Activation: HAMSTER, LIVER, S-9, AROCLOR 1254 (10%), Method: PREINCUBATION) of the same compound?
The mutagenic call was “inactive; negative”.

And the mutagenic call (Test System: AMES SALMONELLA TYPHIMURIUM, Strain/Indicator: TA100, Metabolic Activation: HAMSTER, LIVER, S-9, AROCLOR 1254 (30%), Method: PREINCUBATION)?
The mutagenic call was “inactive; negative”.

What about the mutagenic call [6] of the same compound?
The mutagenic call was “inactive; negative”.

What about the mutagenic call (Test System: AMES SALMONELLA TYPHIMURIUM, Strain/Indicator: TA100, Metabolic Activation: RAT LIVER S-9, PCB, Method: PREINCUBATION) of the same compound?
Its mutagenic call is “inactive; negative”.

And the mutagenic call (Test System: AMES SALMONELLA TYPHIMURIUM, Strain/Indicator: TA100, Metabolic Activation: RAT, LIVER, S-9, AROCLOR 1254 (10%), Method: PREINCUBATION)?
Its mutagenic call is “inactive; negative”.

What about the mutagenic call (Test System: AMES SALMONELLA TYPHIMURIUM, Strain/Indicator: TA100, Metabolic Activation: RAT, LIVER, S-9, AROCLOR 1254 (30%), Method: PREINCUBATION) of the same compound?
The mutagenic call was “inactive; negative”.

What about the mutagenic call [7] of the same compound?
Its mutagenic call is “inactive; negative”.

What about the mutagenic call (Test System: AMES SALMONELLA TYPHIMURIUM, Strain/Indicator: TA104, Metabolic Activation: RAT LIVER S-9, PCB, Method: PREINCUBATION) of the same compound?
The mutagenic call was “inactive; negative”.

And the mutagenic call (Test System: AMES SALMONELLA TYPHIMURIUM, Strain/Indicator: TA1535, Metabolic Activation: HAMSTER, LIVER, S-9, AROCLOR 1254 (10%), Method: PREINCUBATION)?
Its mutagenic call is “inactive; negative”.

And the mutagenic call (Test System: AMES SALMONELLA TYPHIMURIUM, Strain/Indicator: TA1535, Metabolic Activation: HAMSTER, LIVER, S-9, AROCLOR 1254 (30%), Method: PREINCUBATION)?
The mutagenic call was “inactive; negative”.

What about the mutagenic call (Test System: AMES SALMONELLA TYPHIMURIUM, Strain/Indicator: TA1535, Metabolic Activation: NONE, Method: PREINCUBATION) of the same compound?
Its mutagenic call is “inactive; negative”.

And the mutagenic call (Test System: AMES SALMONELLA TYPHIMURIUM, Strain/Indicator: TA1535, Metabolic Activation: RAT, LIVER, S-9, AROCLOR 1254 (10%), Method: PREINCUBATION)?
The mutagenic call was “inactive; negative”.

And the mutagenic call (Test System: AMES SALMONELLA TYPHIMURIUM, Strain/Indicator: TA1535, Metabolic Activation: RAT, LIVER, S-9, AROCLOR 1254 (30%), Method: PREINCUBATION)?
Its mutagenic call is “inactive; negative”.

What about the mutagenic call (Test System: AMES SALMONELLA TYPHIMURIUM, Strain/Indicator: TA1537, Metabolic Activation: HAMSTER, LIVER, S-9, AROCLOR 1254 (30%), Method: PREINCUBATION) of the same compound?
The mutagenic call was “inactive; negative”.

What about the mutagenic call (Test System: AMES SALMONELLA TYPHIMURIUM, Strain/Indicator: TA1537, Metabolic Activation: NONE, Method: PREINCUBATION) of the same compound?
Its mutagenic call is “inactive; negative”.

What about the mutagenic call (Test System: AMES SALMONELLA TYPHIMURIUM, Strain/Indicator: TA1537, Metabolic Activation: RAT, LIVER, S-9, AROCLOR 1254 (30%), Method: PREINCUBATION) of the same compound?
Its mutagenic call is “inactive; negative”.

What about the mutagenic call (Test System: E.COLI, Strain/Indicator: WP2 UVRA, Metabolic Activation: NONE, Method: PREINCUBATION) of the same compound?
The mutagenic call was “inactive; negative”.

What about the mutagenic call (Test System: E.COLI, Strain/Indicator: WP2 UVRA, Metabolic Activation: RAT LIVER S-9, PCB, Method: PREINCUBATION) of the same compound?
The mutagenic call was “inactive; negative”.

— PubChem BioAssay AID1259407 (Chemical Carcinogenesis Research Information System (CCRIS), 2018)
